# Measurements as given in PMC6363832 (Cancer epidemiology, biomarkers & prevention : a …, 2018).
# Experiments:
# Type in all cases: biochemical
# Settings in all cases: NADPH regenerating system, 50 mM potassium phosphate, 37 °C; HEK293 microsomes
# wt FMO5 [1] = biological target: T1, wt FMO5 (Homo sapiens, UniProt P49326); test: benzydamine N-oxidation, UPLC-MS/MS
# T1 sequence (P49326 1-533): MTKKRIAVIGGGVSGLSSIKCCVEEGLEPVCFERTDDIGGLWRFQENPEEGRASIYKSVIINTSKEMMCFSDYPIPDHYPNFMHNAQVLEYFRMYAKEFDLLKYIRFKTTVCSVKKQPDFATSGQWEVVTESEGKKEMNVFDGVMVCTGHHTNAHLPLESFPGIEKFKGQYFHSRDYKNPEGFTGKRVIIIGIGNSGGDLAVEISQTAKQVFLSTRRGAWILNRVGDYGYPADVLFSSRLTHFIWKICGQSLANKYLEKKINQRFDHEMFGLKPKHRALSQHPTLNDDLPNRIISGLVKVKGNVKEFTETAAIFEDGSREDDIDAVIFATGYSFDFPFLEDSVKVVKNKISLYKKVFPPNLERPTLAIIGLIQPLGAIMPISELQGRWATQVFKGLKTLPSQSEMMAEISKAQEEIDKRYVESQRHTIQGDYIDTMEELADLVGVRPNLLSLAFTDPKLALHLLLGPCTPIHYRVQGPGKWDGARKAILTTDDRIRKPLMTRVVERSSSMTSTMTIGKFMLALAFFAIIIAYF
# wt FMO4 [2] = biological target: T2, wt FMO4 (Homo sapiens, UniProt P31512); test: benzydamine N-oxidation, UPLC-MS/MS
# T2 sequence (P31512 1-558): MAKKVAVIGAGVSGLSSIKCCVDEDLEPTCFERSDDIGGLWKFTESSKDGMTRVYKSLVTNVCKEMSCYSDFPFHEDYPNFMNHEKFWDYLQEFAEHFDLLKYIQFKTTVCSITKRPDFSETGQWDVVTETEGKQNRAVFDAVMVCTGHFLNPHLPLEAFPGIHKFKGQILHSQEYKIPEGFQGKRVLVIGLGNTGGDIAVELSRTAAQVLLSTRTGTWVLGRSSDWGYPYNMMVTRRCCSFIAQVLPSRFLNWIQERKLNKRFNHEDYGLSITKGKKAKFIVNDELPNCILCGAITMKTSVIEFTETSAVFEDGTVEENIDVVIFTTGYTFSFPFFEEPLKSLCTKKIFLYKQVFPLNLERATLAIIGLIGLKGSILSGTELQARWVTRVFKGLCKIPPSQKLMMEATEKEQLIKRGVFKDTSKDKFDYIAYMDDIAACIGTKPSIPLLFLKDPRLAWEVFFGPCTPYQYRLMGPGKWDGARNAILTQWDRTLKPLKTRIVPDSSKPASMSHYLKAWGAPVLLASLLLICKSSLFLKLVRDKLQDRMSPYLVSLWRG
# wt FMO5 [3] = biological target: T1, wt FMO5; test: nicotine-N'-oxide formation, UPLC-MS/MS
# wt FMO4 [4] = biological target: T2, wt FMO4; test: nicotine-N'-oxide formation, UPLC-MS/MS
Km (wt FMO5 [1]) [mM],Km (wt FMO4 [2]) [mM],SMILES,Km (wt FMO5 [3]) [mM],Km (wt FMO4 [4]) [mM]
> 2,> 3,CN(C)CCCOc1nn(Cc2ccccc2)c2ccccc12 [benzydamine],–,–
–,–,"CN1CCC[C@H]1c1cccnc1 [compound 4, nicotine]",> 5,> 5
